Test results from patent publication US7504517B2, “Kv1.5 potassium channel inhibitors” (Wyeth, priority 2006, dated 2009).

Experiments:
L-type calcium channels = assay: FLIPR L-Type Calcium Channel Assay; type: cell-based, murine; conditions: HL-1 cells expressing endogenous L-type calcium channels; calcium influx after 20 mM KCl; read-out: L-type Ca^2+ IC50
Protocol: 50 μL per well test compounds are added to the plates and further incubated for 15 min. in a 5% CO2 37° C. incubator. All final solutions contain the anion exchange inhibitor, probenecid (2.5 mM). The 96-well plates are then placed in the center position of the FLIPR 1 (Fluorometric Imaging Plate Reader, Molecular Devices Corporation). Cell monolayers in each well are simultaneously illuminated at 488 nm with an Argon ion laser, and fluorescence emission is monitored using a 510-570 nm bandpass filter and a cooled CCD camera. To depolarize the plasma membrane and activate L-type calcium channels, 50 μL per well of 20 mM KCl (final concentration) are dispensed simultaneously to all 96 wells using the FLIPR's automatic 96-well pipettor. Fluorescence measurements are captured for 5 min. following KCl addition. Calcium influx, expressed as % control, is calculated for each concentration of test compound and concentration-response curves and IC50 values are generated using GraphPad Prism 4.0.

Kv1.5 = biological target: T1, Kv1.5 (Homo sapiens, UniProt P22460); assay: Kv1.5 Patch Clamp EP; type: cell-based; conditions: 1.0 μM, single point; whole cell patch clamp, Kv1.5 stably over expressed in HEK or LTK- cells
T1 construct: expressed in transfected cells; host or cells: HEK or LTK- cells
Protocol: The external solution is standard Tyrodes solution. […] Inhibition was measured at the end of the 1 second pulses and expressed relative to controls. Initial Kv1.5 inhibition is estimated by single point determinations done at 1 μM.

T1 sequence (P22460 whole entry): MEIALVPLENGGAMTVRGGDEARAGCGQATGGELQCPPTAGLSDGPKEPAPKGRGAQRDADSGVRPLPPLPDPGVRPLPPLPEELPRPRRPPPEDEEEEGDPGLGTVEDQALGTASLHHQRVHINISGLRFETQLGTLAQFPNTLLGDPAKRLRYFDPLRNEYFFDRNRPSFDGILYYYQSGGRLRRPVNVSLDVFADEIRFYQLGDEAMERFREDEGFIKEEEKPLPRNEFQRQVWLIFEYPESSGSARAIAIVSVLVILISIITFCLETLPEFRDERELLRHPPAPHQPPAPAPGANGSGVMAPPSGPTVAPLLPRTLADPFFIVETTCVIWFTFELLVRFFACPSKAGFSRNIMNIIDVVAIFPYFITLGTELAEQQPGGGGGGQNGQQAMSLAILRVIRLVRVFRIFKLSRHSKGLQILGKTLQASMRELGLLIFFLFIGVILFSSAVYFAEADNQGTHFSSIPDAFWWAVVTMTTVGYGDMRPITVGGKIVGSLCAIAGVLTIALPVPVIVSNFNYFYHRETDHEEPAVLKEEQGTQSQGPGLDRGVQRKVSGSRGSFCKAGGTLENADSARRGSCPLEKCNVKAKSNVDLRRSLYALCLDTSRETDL

IC50 (L-type calcium channels) [µM]	inhibition at 1 µM (Kv1.5) [%]	Compound	Kv1.5% inhibition @ 1.0 μM (Kv1.5) [%]
4	85	COc1ccc(CCN2C(=O)N(NCc3ccc(N(C)C)cc3)CC2c2ccc(C(C)(C)C)cc2)cc1 (centres unmarked) [Compound 91, 1-[(4-(Dimethylamino)phenylmethyl)amino]-3-[2-(4-methoxyphenyl)ethyl]-4-[4-(tert-butyl)phenyl]-2-imidazolidinone]	–
4.8	83	COc1ccc(CCN2C(=O)N(NCc3ccc(-n4ccnc4)cc3)CC2c2ccc(C)c(C)c2)cc1 (centres unmarked) [Compound 98, 1-[(4-(1H-imidazol-1-yl)phenylmethyl)amino]-3-[2-(4-methoxyphenyl)ethyl]-4-(3,4-dimethylphenyl)-2-imidazolidinone]	–
12	81	COc1ccc(CCN2C(=O)N(NS(=O)(=O)CCl)CC2c2ccc(C(C)(C)C)cc2)cc1 (centres unmarked) [Compound 39, 1-(Chloromethylsulfonylamino)-3-[2-(4-methoxyphenyl)ethyl]-4-(4-tert-butyl-phenyl)-2-imidazolidinone]	–
3.5	81	COc1ccc(CCN2C(=O)N(NCCc3ccccc3)CC2c2ccc(C)c(C)c2)cc1 (centres unmarked) [Compound 97, 1-[(Phenylethyl)amino]-3-[2-(4-methoxyphenyl)ethyl]-4-(3,4-dimethylphenyl)-2-imidazolidinone]	–
4	78	COc1ccc(CCN2C(=O)N(NC(=O)CN(C)Cc3ccccc3)CC2c2ccc(C(C)(C)C)cc2)cc1 (centres unmarked) [Compound 81, 2-(Benzylmethylamino)-N-{4-[4-(tert-butyl)phenyl]-3-[2-(4-methoxyphenyl)-ethyl]-2-oxo-imidazolidin-1-yl}-acetamide]	–
6	57	COc1ccc(CCN2C(=O)N(NCc3ccccc3)CC2c2ccc(C(C)(C)C)cc2)cc1 (centres unmarked) [Compound 87, 1-Benzylamino-3-[2-(4-methoxyphenyl)ethyl]-4-[4-(tert-butyl)phenyl]-2-imidazolidinone]	–

Second part, the compound before the results:

Compound	IC50 (L-type calcium channels) [µM]	inhibition at 1 µM (Kv1.5) [%]	Kv1.5% inhibition @ 1.0 μM (Kv1.5) [%]
COc1ccc(CCN2C(=O)N(NS(C)(=O)=O)CC2c2ccc(Cl)cc2)cc1 (centres unmarked) [Compound 21, 1-(Methylsulfonylamino)-3-[2-(4-methoxyphenyl)ethyl]-4-(4-chlorophenyl)-2-imidazolidinone]	26	72	–
COc1ccc(CCN2C(=O)N(NC(=O)c3ccco3)CC2c2ccc(C)c(C)c2)cc1 (centres unmarked) [Compound 74, 1-(2-Furanoylamino)-3-[2-(4-Methoxyphenyl)ethyl]-4-(3,4-dimethylphenyl)-2-imidazolidinone]	25	85	–
COc1ccc(CCN2C(=O)N(NC(=O)C3CC3)CC2c2ccc(C)c(C)c2)cc1 (centres unmarked) [Compound 72, Cyclopropanecarboxylic acid N-{3-[2-(4-methoxyphenyl)ethyl]-4-(3,4-dimethylphenyl)-2-oxo-imidazolidin-1-yl}-amide]	18	81	–
CCCCS(=O)(=O)NN1CC(c2ccc(C3CC3)cc2)N(CCc2ccc(OC)cc2)C1=O (centres unmarked) [Compound 31, 1-(Butylsulfonylamino)-3-[(4-methoxyphenyl)ethyl]-4-(4-cyclopropylphenyl)-2-imidazolidinone]	4	84	–
tert-butyl [2-({4-(4-tert-butylphenyl)-3-[2-(4-methoxyphenyl)ethyl]-2-oxoimidazolidin-1-yl}amino)-2-oxoethyl]methylcarbamate [Compound 109]	4.6	–	71
COc1ccc(CCN2C(=O)N(N)CC2c2ccc(C)c(C)c2)cc1 (centres unmarked) [Compound 1, 1-Amino-3-[2-(4-methoxyphenyl)ethyl]-4-(3,4-dimethylphenyl)-2-imidazolidinone]	5.5	59	–
COc1ccc(CCN2C(=O)N(NS(=O)(=O)CC(=O)N(C)C)CC2c2ccc(OC)cc2)cc1 (centres unmarked) [Compound 55, 1-[[2-(Dimethylamino)-2-oxoethyl]sulfonylamino]-3-[2-(4-methoxyphenyl)-ethyl]-4-(4-methoxyphenyl)-2-imidazolidinone]	29	29	–
